Test results published in ChEMBL document CHEMBL1201862, “PubChem BioAssay data set” (2004).
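Tested at 5 concentrations; 48 h exposure; 96-well plates; endpoints linearly interpolated, else capped at highest concentration. GI50: concentration for 50% inhibition of growth.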 Active and inactive are the calls of the source. No stated cut-off is given here; in the data, active = GI50 up to about 1.1 µM and inactive = higher.

What was measured:
Test in all cases: NCI-60 cell line screen, 48 h
[1] = tested on: 786-0
[2] = tested on: A498
[3] = tested on: A549
[4] = tested on: ACHN
[5] = tested on: BT-549
[6] = tested on: CAKI-1
[7] = tested on: CCRF-CEM
[8] = tested on: COLO 205
[9] = tested on: DU-145
[10] = tested on: EKVX
[11] = tested on: HCC 2998
[12] = tested on: HCT-116
[13] = tested on: HCT-15
[14] = tested on: HL-60
[15] = tested on: HOP-62
[16] = tested on: HOP-92
[17] = tested on: HT-29
[18] = tested on: Hs-578T
[19] = tested on: IGROV-1
[20] = tested on: K562
[21] = tested on: KM12
[22] = tested on: LOX IMVI
[23] = tested on: M14
[24] = tested on: MCF7
[25] = tested on: MDA-MB-231
[26] = tested on: MDA-MB-435
[27] = tested on: MDA-N
[28] = tested on: MOLT-4
[29] = tested on: Malme-3M
[30] = tested on: NCI-H226
[31] = tested on: NCI-H23
[32] = tested on: NCI-H460
[33] = tested on: NCI-H522
[34] = tested on: NCI/ADR-RES
[35] = tested on: OVCAR-3
[36] = tested on: OVCAR-4
[37] = tested on: OVCAR-5
[38] = tested on: OVCAR-8
[39] = tested on: PC-3
[40] = tested on: RPMI-8226
[41] = tested on: RXF 393
[42] = tested on: SF-268
[43] = tested on: SF-295
[44] = tested on: SF-539
[45] = tested on: SK-MEL-28
[46] = tested on: SK-MEL-2
[47] = tested on: SK-MEL-5
[48] = tested on: SK-OV-3
[49] = tested on: SN12C
[50] = tested on: SNB-19
[51] = tested on: SNB-75
[52] = tested on: SR
[53] = tested on: SW-620
[54] = tested on: T47D
[55] = tested on: TK-10
[56] = tested on: U-251
[57] = tested on: UACC-62
[58] = tested on: UO-31
[59] = tested on: UACC-257

Cc1cc(C)c2c(=O)n(CN3CCC(O)(c4ccccc4)CC3)sc2n1
GI50 [1]: 17.1 µM (inactive) | GI50 [2]: 78.3 µM (inactive) | GI50 [3]: > 100 µM (inactive) | GI50 [4]: 19.4 µM (inactive) | GI50 [5]: 97.3 µM (inactive) | GI50 [6]: 43.5 µM (inactive) | GI50 [7]: 19.4 µM (inactive) | GI50 [8]: 39.2 µM (inactive) | GI50 [9]: 38.3 µM (inactive) | GI50 [10]: 25 µM (inactive) | GI50 [11]: 27.4 µM (inactive) | GI50 [12]: 39.9 µM (inactive) | GI50 [13]: 34.7 µM | GI50 [14]: 20 µM (inactive) | GI50 [15]: 34.7 µM (inactive) | GI50 [16]: > 100 µM (inactive) | GI50 [17]: 28.4 µM (inactive) | GI50 [18]: 40 µM (inactive) | GI50 [19]: > 100 µM (inactive) | GI50 [20]: 24 µM (inactive) | GI50 [21]: > 100 µM (inactive) | GI50 [22]: 31.1 µM (inactive) | GI50 [23]: 50 µM (inactive) | GI50 [24]: 47.9 µM (inactive) | GI50 [25]: 73.1 µM (inactive) | GI50 [26]: 20.4 µM (inactive) | GI50 [27]: 19.6 µM (inactive) | GI50 [28]: 28.1 µM (inactive) | GI50 [29]: 17.6 µM (inactive) | GI50 [30]: > 100 µM (inactive) | GI50 [31]: 27.8 µM (inactive) | GI50 [32]: 29 µM (inactive) | GI50 [33]: 11.8 µM (inactive) | GI50 [34]: 53.1 µM (inactive) | GI50 [35]: 38.4 µM (inactive) | GI50 [36]: 29.4 µM (inactive) | GI50 [37]: 23 µM (inactive) | GI50 [38]: 30.1 µM (inactive) | GI50 [39]: 60.1 µM (inactive) | GI50 [40]: 23.4 µM (inactive) | GI50 [41]: 19.8 µM (inactive) | GI50 [42]: 31.1 µM (inactive) | GI50 [43]: > 100 µM (inactive) | GI50 [44]: 21.2 µM (inactive) | GI50 [45]: 56.2 µM (inactive) | GI50 [46]: > 100 µM (inactive) | GI50 [47]: 97.3 µM (inactive) | GI50 [48]: > 100 µM (inactive) | GI50 [49]: 25.7 µM (inactive) | GI50 [50]: > 100 µM (inactive) | GI50 [51]: 19.2 µM (inactive) | GI50 [52]: 29.9 µM (inactive) | GI50 [53]: 26.8 µM (inactive) | GI50 [54]: 80.9 µM (inactive) | GI50 [55]: 11.6 µM (inactive) | GI50 [56]: 77.8 µM (inactive) | GI50 [57]: 50.9 µM (inactive) | GI50 [58]: 17.2 µM (inactive)

CCc1ccc(CCC(=O)O)nc1
GI50 [1]: > 100 µM (inactive) | GI50 [2]: > 100 µM (inactive) | GI50 [3]: > 100 µM (inactive) | GI50 [4]: > 100 µM (inactive) | GI50 [5]: > 100 µM (inactive) | GI50 [6]: > 100 µM (inactive) | GI50 [7]: > 100 µM (inactive) | GI50 [8]: > 100 µM (inactive) | GI50 [9]: > 100 µM (inactive) | GI50 [10]: > 100 µM (inactive) | GI50 [11]: > 100 µM (inactive) | GI50 [12]: > 100 µM (inactive) | GI50 [13]: > 100 µM | GI50 [14]: > 100 µM (inactive) | GI50 [15]: > 100 µM (inactive) | GI50 [16]: > 100 µM (inactive) | GI50 [17]: > 100 µM (inactive) | GI50 [18]: > 100 µM (inactive) | GI50 [19]: > 100 µM (inactive) | GI50 [20]: > 100 µM (inactive) | GI50 [21]: > 100 µM (inactive) | GI50 [22]: > 100 µM (inactive) | GI50 [23]: > 100 µM (inactive) | GI50 [24]: > 100 µM (inactive) | GI50 [25]: > 100 µM (inactive) | GI50 [26]: > 100 µM (inactive) | GI50 [27]: > 100 µM (inactive) | GI50 [29]: > 100 µM (inactive) | GI50 [30]: > 100 µM (inactive) | GI50 [31]: > 100 µM (inactive) | GI50 [32]: > 100 µM (inactive) | GI50 [33]: > 100 µM (inactive) | GI50 [34]: > 100 µM (inactive) | GI50 [35]: > 100 µM (inactive) | GI50 [36]: > 100 µM (inactive) | GI50 [37]: > 100 µM (inactive) | GI50 [38]: > 100 µM (inactive) | GI50 [39]: > 100 µM (inactive) | GI50 [40]: > 100 µM (inactive) | GI50 [41]: > 100 µM (inactive) | GI50 [42]: > 100 µM (inactive) | GI50 [43]: > 100 µM (inactive) | GI50 [44]: > 100 µM (inactive) | GI50 [45]: > 100 µM (inactive) | GI50 [46]: > 100 µM (inactive) | GI50 [47]: > 100 µM (inactive) | GI50 [48]: > 100 µM (inactive) | GI50 [49]: > 100 µM (inactive) | GI50 [50]: > 100 µM (inactive) | GI50 [51]: > 100 µM (inactive) | GI50 [52]: > 100 µM (inactive) | GI50 [53]: > 100 µM (inactive) | GI50 [54]: > 100 µM (inactive) | GI50 [55]: > 100 µM (inactive) | GI50 [56]: > 100 µM (inactive) | GI50 [59]: > 100 µM (inactive) | GI50 [57]: > 100 µM (inactive) | GI50 [58]: > 100 µM (inactive)
